Source: patent publication US12578273B2, “Ph-reversible leuco-BODIPY probe for in situ visualization of extracellular vesicles and their secretion from living cells” (The Chinese University of Hong Kong, priority 2021, dated 2026)

What was measured:
[1] = pH-dependent spectroscopic properties (pH titration, absorption and fluorescence); type: physicochemical; conditions: weakly basic conditions (pH of about 7.4); PBS containing 50% ethanol
Method: In each step of pH titration, small volumes (2-10 μL) of HCl at appropriate concentrations (0.1, 10^−2, or 10^−3 M) were pipetted directly into the measurement cell, followed by filling up with 2 mL of 1 μM dye-containing solution [either in a mixture of PBS/ethanol 1:1 (v/v) or 0.5% (v/v) DMSO]. The pH was monitored at 298 K using a digital pH meter (827 pH lab) equipped with a Biotrode (Metrohm, Herisau, Switzerland). Calibration of the instrument was performed with standard aqueous solutions of pH 4, 7, and 9 from Metrohm. Absorption and fluorescence measurements were carried out on an Agilent Cary 5000 spectrophotometer and a Horiba Jobin Yvon spectrometer (Nanolog FL3-2iHR), respectively.
We investigated the spectroscopic properties of the fluorescent probe as a function of pH in phosphate-buffered saline (PBS) containing 50% ethanol by UV-vis spectrophotometry and fluorimetry (FIGS. 21A-21F, 22-23).

[2] = system: A549 cells that express GFP-tagged CD81; experiment: Confocal imaging of EVs or precursor EVs (colocalization of BODIPY with GFP-tagged CD81); type: cell-based; conditions: 30 min
Method: (§1) Pre-seeded in 35-mm confocal dishes (SPL Life Sciences, Pocheon, South Korea), cells were grown to the desired confluence before transfection. The transfection medium, formulated in 1 mL of OptiMEM (Gibco, Waltham, MA), contains 7.5 μL of Lipofectamine 3000 (Invitrogen) and either 2.5 μg/mL GFP-CD81 or EGFP-tubulin-6 plasmids. After incubating the cells with the transfection medium for 4 h, the cells were switched to 2 mL of plasmid-free complete DMEM for 2 d. After that, the transfected cells were incubated with leuco-BODIPY for further confocal imaging.
(§2) Confocal imaging of EVs or precursor EVs To prepare the stock of the probe for our cell-based experiments, BODIPY was pre-dissolved in 100% DMSO (2 mM). After dissolution, the probe predominantly assumes the leuco-BODIPY form, as evidenced by its light-yellow color. Cells that express marker proteins of interest (i.e., GFP-tagged CD81 or EGFP-tagged tubulin-6) were pre-seeded in 35-mm confocal dishes. After removing the culture medium, the transfected cells were incubated with 1 mL of 2 μM leuco-BODIPY [dissolved in phenol red-free DMEM (Gibco) with […] (Invitrogen) for solubilization] for 30 min. The EVs in the medium or precursor EVs inside cells were imaged under a Leica SP8 confocal microscope with a 63× objective. The excitation wavelengths of the GFP-tagged proteins and BODIPY were 488 nm and 575 nm, respectively. The emission wavelengths of the GFP-tagged proteins and BODIPY were 495-525 nm and 585-710 nm, respectively. All images were taken at the same laser settings.
(§3) Then, we seeded HeLa, A549, or HEK293 cells that express GFP-tagged CD81 in a confocal dish and incubated the cells with phenol red-free medium containing 2 μM leuco-BODIPY and 0.1% DMSO for 30 min. Note that this probe is predominantly in its leuco-BODIPY form when dissolved in DMSO, as evidenced by its light-yellow color. We obtained confocal images of the cell-seeded medium without harvesting the EVs or rinsing the cells (FIGS. 2A, 30-31). Representative images of their extracellular space depict granular or spherical pockets of fluorescence from BODIPY (red) amidst a dark background. […] The fluorescent pockets of BODIPY are submicron-sized or micron-sized, larger than the reported sizes of exosomes (50-200 nm).^36 As the resolution limit of confocal microscopy may overestimate the size of EVs, we isolated EVs from the cell-seeded medium for nanoparticle tracking analysis (NTA; FIG. 2B). The hydrodynamic size distribution of the EVs lies between about 50 nm and about 400 nm, with peak EV diameters of 151 nm, 104 nm, and 156 nm for HeLa, A549, and HEK293 cells, respectively. As these peak EV sizes corroborate the typical sizes of exosomes, we conclude that the EVs detected are mostly exosomes, with a smaller portion of larger ectosomes, clustered exosomes, or extracellular MVBs (FIGS. 4A-4C).
(§4) Next, we attempted to use our probe for imaging intracellular precursor EVs before their secretion to the extracellular milieu. Again, we added leuco-BODIPY (dissolved in DMSO) to culture medium seeded with HeLa, A549, or HEK293 cells that express GFP-tagged CD81 for 30 min (FIG. 3). […] Contrarily, the overlap between BODIPY and GFP-CD81 fluorescence in the cytoplasm is moderate, characterized by Pearson's colocalization coefficients of 0.72, 0.66, and 0.63 for HeLa, A549, and HEK293 cells, respectively. As a negative control, we captured confocal images of the three cell lines but without adding leuco-BODIPY to the medium.

[3] = system: HEK293 cells that express GFP-tagged CD81; experiment: as above; type: cell-based; conditions: 30 min
Method: as §1, §2, §3, §4

[4] = system: HeLa cells that express GFP-tagged CD81; experiment: as above; type: cell-based; conditions: 30 min
Method: as §1, §2, §3, §4

[5] = system: HeLa cells; experiment: Effect of probe staining on the secretion of EVs (nanoparticle tracking analysis); type: cell-based; conditions: 5 μM leuco-BODIPY, 3 h, NTA
Method: FIGS. 32A-32B Effect of probe staining on the secretion of EVs. HeLa cells were incubated with (FIG. 32A) complete DMEM or (FIG. 32B) DMEM containing 5 μM leuco-BODIPY for 3 h. After that, the EV sample was isolated from the cells for nanoparticle tracking analysis (NTA).
EV samples were diluted with filtered PBS (0.2 μm) to obtain an EV concentration of 10^8-10^9 particles/mL. For each sample, four 1-min videos were recorded when introduced about 1 mL of the conditioned medium to the NTA system (Malvern NanoSight NS500, Malvern, UK). The temperature was kept at about 18° C. Images in each video were analyzed with NTA 3.1 Build 3.1.45 software (Malvern). Auto settings were used for blur size and maximum jump distance. 2000 frames were examined per sample. […]
Moreover, we incubated the three cell types with our probe for 30 min, isolated the EVs secreted to the culture medium, centrifuged the collected medium to remove any dye-stained cell fragments, and confirmed the detection of fluorescence in the isolated EVs (Table 1). By contrast, for the EVs isolated from the same cell types under the same culture conditions but without treatment by our probe, the fluorescence detected was at the background level of blank culture medium.

[6] = extracellular space (CD81-enriched exosomes), 2 μM, no rinsing

**Q.** Which new absorption band [1] does the source give for CCOC(=O)C(=Cc1ccc2n1[B-](F)(F)n1c(C=C(C(=O)OCC)C(=O)OCC)ccc1C2(OC)c1ccncc1)C(=O)OCC [leuco-BODIPY] here?
**A.** ~360 nm

**Q.** And the “Pearson's colocalization coefficient between BODIPY and CD81-GFP fluorescence” value [2, 6]?
**A.** 0.85

**Q.** And the “Pearson's colocalization coefficient between BODIPY and GFP-CD81 fluorescence” value ([2]; in the cytoplasm)?
**A.** 0.66

**Q.** And the “Pearson's colocalization coefficient between BODIPY and GFP-CD81 fluorescence” value ([2]; on the pseudopodia)?
**A.** 0.90

**Q.** What about the “Pearson's colocalization coefficient between BODIPY and CD81-GFP fluorescence” value [3, 6] of the same molecule?
**A.** 0.94

**Q.** And the “Pearson's colocalization coefficient between BODIPY and GFP-CD81 fluorescence” value ([3]; in the cytoplasm)?
**A.** 0.63

**Q.** What about the “Pearson's colocalization coefficient between BODIPY and GFP-CD81 fluorescence” value ([3]; on the pseudopodia) of the same molecule?
**A.** 0.86

**Q.** And the “Pearson's colocalization coefficient between BODIPY and CD81-GFP fluorescence” value [4, 6]?
**A.** 0.92

**Q.** What about the “Pearson's colocalization coefficient between BODIPY and GFP-CD81 fluorescence” value ([4]; in the cytoplasm) of the same molecule?
**A.** 0.72

**Q.** And the “Pearson's colocalization coefficient between BODIPY and GFP-CD81 fluorescence” value ([4]; on the pseudopodia)?
**A.** 0.94

**Q.** What about the “effect on EV secretion (size distribution of EVs from dye-stained vs unstained cells)” value [5] of the same molecule?
**A.** limited effect
